# Assay results published in publication PMC8086025, “A benzopyran with antiarrhythmic activity is an inhibitor of Kir3.1-containing potassium channels” (The Journal of Biological Chemistry, 2021).
# Several values for one entry are separate records, joined by “and”; a condition that tells them apart may be missing. Equal entries are not always repeated. Entries after “also recorded” stand apart in the source; their conditions may differ.
# How the values were obtained:
# IKACh = assay: In vivo ECG, carbachol-induced heart rate slowing in anesthetized mice
# Description: We tested the in vivo effects of BP-G1 versus those of BP-G1(SR) on heart rate in anesthetized adult mice (Fig. 8). ECG was continuously recorded. Panel A is the ECG showing that after carbachol (300 μl of 200 μM) was administered, i.p. (red mark), the heart decelerated, with a visible RR prolongation. About 10 min after carbachol injection, BP-G1 was delivered via the jugular vein (40 μl of 240 μM) (green mark). Within 5 min, there was a reversal of carbachol’s effects on the heart rate. Panel B is a control mouse showing heart rate slowing after carbachol administration (red mark).
# Mice were anesthetized (1.5% isofluorane), and a 1.2 French octapolar catheter (Millar) with a drug delivery port was placed transvenously, through the jugular vein, into the right atrium. Continuous ECG was recorded using the Animal Bio Amp and PowerLab 4/35 Advanced Instruments apparatus. […] Saline control at the same volume was performed. Results are averages ±SD.
# Histamine H2 = target: T1, Histamine H2 (Homo sapiens, UniProt P25021); assay: Radioligand binding, [125I]APT; settings: read-out: % Specific Binding at 10 µM
# T1 construct: expressed in transfected cells; host or cells: CHO cells
# Neurokinin NK1 = target: T2, Neurokinin NK1 (Homo sapiens, UniProt P25103); assay: Radioligand binding, [125I]-Substance P LYS3, U373MG uppsala; settings: read-out: % Specific Binding at 10 µM
# T2 construct: endogenous in cells; host or cells: U373MG uppsala
# Opioid Kappa = target: T3, Opioid Kappa (Rattus norvegicus, UniProt P34975); assay: Radioligand binding, [3H]U 69593; settings: read-out: % Specific Binding at 10 µM
# T3 construct: expressed in transfected cells; host or cells: CHO cells
# 5-HT2A = target: T4, 5-HT2A (Homo sapiens, UniProt P28223); assay: Radioligand binding, [3H]ketanserin; settings: read-out: % Specific Binding at 10 µM
# T4 construct: expressed in transfected cells; host or cells: HEK-293 cells
# [1] = target: T5, Non-steroid nuclear receptors PPARγ (Homo sapiens, UniProt P37231); assay: Radioligand binding, [3H]rosiglitazone; settings: read-out: % Specific Binding at 10 µM
# T5 construct: purchased; host or cells: E. coli
# Ca = assay: Radioligand binding; settings: listed as Benzopyran-G1 (SR)
# Nav = assay: Radioligand binding, rat cerebral cortex
# [2] = test system: GABA Cl- channel (GABA-gated); assay: Radioligand binding, [35S]TBPS; design: species or system rat; settings: 10 µM; listed as Benzopyran-G1 (SR)
# Dopamine transporter = target: T6, Dopamine transporter (Homo sapiens, UniProt Q01959); assay: Radioligand binding, [3H]BTCP; settings: 10 µM; read-out: % Specific Binding at 10 µM
# T6 construct: expressed in transfected cells; host or cells: CHO cells
# Kir3.1/2 channel = target: T7, Kir3.1/2 channel (UniProt P48542+P48549); assay: TEVC in Xenopus oocytes, Kir3.1/2; assay type: cell-based, human Kir3.1, mouse Kir3.2; design: expressed in transfected cells; settings: TEVC
# T7 sequence (P48549 1-501): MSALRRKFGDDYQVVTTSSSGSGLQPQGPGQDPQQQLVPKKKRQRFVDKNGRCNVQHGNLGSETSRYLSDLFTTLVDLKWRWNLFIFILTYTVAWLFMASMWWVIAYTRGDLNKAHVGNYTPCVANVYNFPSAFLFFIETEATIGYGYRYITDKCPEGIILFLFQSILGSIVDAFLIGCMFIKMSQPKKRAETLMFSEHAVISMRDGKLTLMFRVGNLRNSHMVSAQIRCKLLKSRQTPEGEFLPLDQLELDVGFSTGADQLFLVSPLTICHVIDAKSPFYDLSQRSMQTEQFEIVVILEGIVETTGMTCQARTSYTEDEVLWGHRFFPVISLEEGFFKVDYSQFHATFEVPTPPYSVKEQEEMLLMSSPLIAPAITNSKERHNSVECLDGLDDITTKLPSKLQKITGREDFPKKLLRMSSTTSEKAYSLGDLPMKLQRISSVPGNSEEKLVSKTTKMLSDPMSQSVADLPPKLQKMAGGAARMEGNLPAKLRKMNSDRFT
# T7 sequence (P48542 1-425): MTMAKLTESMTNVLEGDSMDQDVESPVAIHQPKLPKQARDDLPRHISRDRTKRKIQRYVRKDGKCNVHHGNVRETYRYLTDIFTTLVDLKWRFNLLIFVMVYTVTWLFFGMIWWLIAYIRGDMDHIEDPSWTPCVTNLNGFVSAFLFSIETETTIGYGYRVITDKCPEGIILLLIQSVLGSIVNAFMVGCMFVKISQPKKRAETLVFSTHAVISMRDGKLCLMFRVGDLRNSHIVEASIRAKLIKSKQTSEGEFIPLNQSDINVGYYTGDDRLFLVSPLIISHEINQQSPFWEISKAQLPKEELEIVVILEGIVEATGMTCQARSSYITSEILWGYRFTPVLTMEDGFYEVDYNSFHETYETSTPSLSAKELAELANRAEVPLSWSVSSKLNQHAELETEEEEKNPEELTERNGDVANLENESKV
# Description: (§1) X. laevis oocytes were isolated and microinjected as previously described ([6]). Human Kir3.1, mouse Kir3.2, and human Kir3.4 DNA constructs were used for electrophysiology experiments. All cRNA constructs were injected in the amount of 2 ng per oocyte. Injected oocytes were incubated for 2 to 3 days at 18 °C to allow for expression. Whole-cell oocyte currents were then measured using a GeneClamp 500 amplifier (Axon Instruments). Microelectrodes had resistances of 0.5 to 1 megohm using a 3M KCl solution in 1.4% agarose. Oocytes were perfused with a low K^+ (LK) solution ND96 (2 mM KCl, 96 mM NaCl, 1 mM MgCl2, 1.8 mM CaCl2, 5 mM HEPES-Na) to establish a baseline for the recordings. Basal current was measured in a high potassium (HK) solution ND96K (96 mM KCl, 10 mM HEPES-K, 1 mM MgCl2, 1.8 mM CaCl2). To block the current, the oocyte chamber was perfused with 4 mM BaCl2 in ND96K. Only the Barium-sensitive current was used for statistical analysis. To measure the inhibitory activity of the channels, 1 μM BP-G1 in ND96K (HK) was used. Typically, oocytes were held at 0 mV (EK) and the current was monitored constantly using a ramp protocol with a command potential from −80 to +80 mV. Current amplitude was measured at the end of a 1 s sweep. All currents were analyzed when they reached steady state. Error bars in the figures represent SD (N > 4).
# Kir3.1/4 channel = target: T8, Kir3.1/4 channel (Homo sapiens, UniProt P48544+P48549); assay: TEVC in Xenopus oocytes, Kir3.1/4; assay type: cell-based; design: expressed in transfected cells; host or cells: Xenopus laevis oocytes (cRNA injection); settings: 1 μM, TEVC
# T8 sequence (P48549 1-501): T7 sequence (P48549 1-501)
# T8 sequence (P48544 1-419): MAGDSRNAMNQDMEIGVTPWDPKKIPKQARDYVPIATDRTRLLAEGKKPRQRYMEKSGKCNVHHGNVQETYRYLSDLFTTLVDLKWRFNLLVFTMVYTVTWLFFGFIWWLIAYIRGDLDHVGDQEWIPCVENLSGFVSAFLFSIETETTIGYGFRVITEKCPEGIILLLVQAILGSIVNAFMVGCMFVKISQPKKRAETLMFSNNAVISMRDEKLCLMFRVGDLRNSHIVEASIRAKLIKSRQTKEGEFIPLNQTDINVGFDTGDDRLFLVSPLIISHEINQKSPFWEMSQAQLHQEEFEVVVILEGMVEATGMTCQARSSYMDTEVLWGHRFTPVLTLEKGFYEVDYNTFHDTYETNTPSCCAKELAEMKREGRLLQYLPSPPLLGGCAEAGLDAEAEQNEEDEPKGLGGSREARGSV
# Description: as §1
# T1 sequence (P25021 whole entry): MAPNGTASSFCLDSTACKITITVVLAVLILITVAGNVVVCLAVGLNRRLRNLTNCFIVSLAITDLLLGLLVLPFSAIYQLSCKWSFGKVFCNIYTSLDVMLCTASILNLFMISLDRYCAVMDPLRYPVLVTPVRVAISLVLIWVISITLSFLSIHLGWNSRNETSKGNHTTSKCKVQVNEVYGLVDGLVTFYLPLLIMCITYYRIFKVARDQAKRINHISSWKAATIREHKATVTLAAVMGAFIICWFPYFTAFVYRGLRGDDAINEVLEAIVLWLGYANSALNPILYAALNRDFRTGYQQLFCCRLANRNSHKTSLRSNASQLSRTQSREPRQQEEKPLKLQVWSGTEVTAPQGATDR
# T6 sequence (Q01959 whole entry): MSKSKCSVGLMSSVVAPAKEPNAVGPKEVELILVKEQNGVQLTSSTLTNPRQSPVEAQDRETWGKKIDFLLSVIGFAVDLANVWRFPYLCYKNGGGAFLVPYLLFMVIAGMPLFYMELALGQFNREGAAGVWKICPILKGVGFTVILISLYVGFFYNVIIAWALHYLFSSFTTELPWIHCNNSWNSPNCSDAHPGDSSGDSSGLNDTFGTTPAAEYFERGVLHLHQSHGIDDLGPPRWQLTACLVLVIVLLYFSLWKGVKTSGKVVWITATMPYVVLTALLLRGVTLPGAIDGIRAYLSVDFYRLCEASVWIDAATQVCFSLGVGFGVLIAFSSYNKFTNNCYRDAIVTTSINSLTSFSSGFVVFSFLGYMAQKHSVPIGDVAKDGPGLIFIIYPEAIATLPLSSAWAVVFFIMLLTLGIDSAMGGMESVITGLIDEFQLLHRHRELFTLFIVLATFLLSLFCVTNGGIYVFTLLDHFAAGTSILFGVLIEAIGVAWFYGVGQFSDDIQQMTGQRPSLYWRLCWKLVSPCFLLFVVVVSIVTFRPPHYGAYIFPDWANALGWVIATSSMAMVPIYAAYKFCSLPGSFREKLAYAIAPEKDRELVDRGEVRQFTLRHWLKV
# T2 sequence (P25103 whole entry): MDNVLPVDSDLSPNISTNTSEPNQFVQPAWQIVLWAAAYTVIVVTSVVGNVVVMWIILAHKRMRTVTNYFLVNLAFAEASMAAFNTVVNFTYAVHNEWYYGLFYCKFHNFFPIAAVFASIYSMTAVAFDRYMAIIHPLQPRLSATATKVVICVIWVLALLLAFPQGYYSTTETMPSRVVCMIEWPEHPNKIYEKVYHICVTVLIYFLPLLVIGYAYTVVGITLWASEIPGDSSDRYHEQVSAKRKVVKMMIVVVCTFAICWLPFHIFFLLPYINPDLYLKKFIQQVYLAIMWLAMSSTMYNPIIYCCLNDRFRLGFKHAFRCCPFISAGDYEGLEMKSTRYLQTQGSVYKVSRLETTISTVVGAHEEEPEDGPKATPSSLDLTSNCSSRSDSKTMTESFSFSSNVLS
# T3 sequence (P34975 whole entry): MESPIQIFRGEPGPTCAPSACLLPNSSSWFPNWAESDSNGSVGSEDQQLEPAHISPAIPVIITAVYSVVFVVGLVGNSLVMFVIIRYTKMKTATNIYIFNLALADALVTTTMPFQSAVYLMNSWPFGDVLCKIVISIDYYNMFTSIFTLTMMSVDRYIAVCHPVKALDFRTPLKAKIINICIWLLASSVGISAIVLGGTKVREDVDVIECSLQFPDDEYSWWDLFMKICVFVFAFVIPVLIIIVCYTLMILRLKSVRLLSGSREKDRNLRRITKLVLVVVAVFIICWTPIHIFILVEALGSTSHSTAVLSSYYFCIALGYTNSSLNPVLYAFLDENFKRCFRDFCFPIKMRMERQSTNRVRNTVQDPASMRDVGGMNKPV
# T4 sequence (P28223 whole entry): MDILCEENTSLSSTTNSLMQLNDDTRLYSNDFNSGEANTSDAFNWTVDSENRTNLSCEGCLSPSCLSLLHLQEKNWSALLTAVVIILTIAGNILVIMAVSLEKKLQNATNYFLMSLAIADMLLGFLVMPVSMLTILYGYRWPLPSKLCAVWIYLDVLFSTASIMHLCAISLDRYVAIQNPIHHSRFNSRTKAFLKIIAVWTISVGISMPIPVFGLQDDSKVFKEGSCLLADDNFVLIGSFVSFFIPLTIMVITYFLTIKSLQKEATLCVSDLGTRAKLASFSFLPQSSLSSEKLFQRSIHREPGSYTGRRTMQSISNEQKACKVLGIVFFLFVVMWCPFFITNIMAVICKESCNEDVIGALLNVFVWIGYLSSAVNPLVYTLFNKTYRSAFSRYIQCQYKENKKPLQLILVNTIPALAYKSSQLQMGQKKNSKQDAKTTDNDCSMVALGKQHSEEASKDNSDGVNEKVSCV
# T5 sequence (P37231 whole entry): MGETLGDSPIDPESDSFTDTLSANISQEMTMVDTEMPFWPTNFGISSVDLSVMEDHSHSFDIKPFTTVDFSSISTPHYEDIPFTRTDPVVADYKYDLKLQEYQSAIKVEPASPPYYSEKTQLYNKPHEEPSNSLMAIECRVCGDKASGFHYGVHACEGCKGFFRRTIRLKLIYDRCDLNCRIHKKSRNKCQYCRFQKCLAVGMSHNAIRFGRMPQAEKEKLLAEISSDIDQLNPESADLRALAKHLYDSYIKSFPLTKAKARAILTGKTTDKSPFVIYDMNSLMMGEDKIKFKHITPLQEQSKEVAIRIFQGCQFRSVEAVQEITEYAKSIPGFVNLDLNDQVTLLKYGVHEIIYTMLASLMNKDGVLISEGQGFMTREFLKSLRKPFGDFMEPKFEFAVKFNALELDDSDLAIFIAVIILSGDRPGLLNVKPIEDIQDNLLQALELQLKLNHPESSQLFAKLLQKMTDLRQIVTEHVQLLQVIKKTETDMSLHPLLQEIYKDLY
structure (smiles),measurement,setting,value
"Cc1cc(CO)nc2cc3c(cc12)OC(C)(C)[C@@H](O)[C@@H]3NCCc1ccccc1 [BP-G1(SR), (3S,4R)-7-(hydroxymethyl)-2,2,9-trimethyl-4-(2-phenylethylamino)-3,4-dihydropyrano[2,3-g]quinolin-3-ol]","RR interval 5 min after compound, given about 10 min after carbachol","IKACh; 40 μl of 240 μM via jugular vein, anesthetized mice, mean ± SD, N = 3",551.6 ± 185 ms
same,heart rate recovery after carbachol,IKACh; 40 μl via jugular vein,the heart rate did not recover to baseline
same,inhibition at 10 µM,Histamine H2,83.6%
same,inhibition at 10 µM,Neurokinin NK1,64.2%
same,inhibition at 10 µM,Opioid Kappa,31.3%
same,inhibition at 10 µM,5-HT2A,46.4%
same,inhibition at 10 µM,[1],58.3%
same,% Specific Binding at 10 µM,Ca,28.633% and < 50%
same,% Specific Binding at 10 µM,Nav,68.800%
same,% Specific Binding at 10 µM,[2],< 50%
same,inhibition at 10 µM,Dopamine transporter,44.6%
same,inhibitory activity on Kir3.1/2 channel,Kir3.1/2 channel,nominally inhibits; also recorded: unable to effectively inhibit
same,inhibitory activity on Kir3.1/4 channel,Kir3.1/4 channel,nominally inhibits; also recorded: unable to effectively inhibit
